Legend:
Lucilia cuprina = Lucilia cuprina test; assay type: in vivo; conditions: application rate 100 ppm; L1 larvae in minced horsemeat; kill after 2 days
Protocol: (§1) Solvent: dimethyl sulphoxide
(§2) To produce an appropriate active ingredient formulation, 10 mg of active ingredient are mixed with 0.5 ml of dimethyl sulphoxide, and the concentrate is diluted with water to the desired concentration.
About 20 L1 larvae of the Australian sheep blowfly (Lucilia cuprina) are transferred into a test vessel containing minced horsemeat and the active ingredient preparation of the desired concentration.
After 2 days, the kill in % is determined. 100% means that all the larvae have been killed; 0% means that none of the larvae have been killed.

[1] = logP determination by HPLC on a reversed-phase column (C18), EEC Directive 79/831 Annex V.A8; assay type: physicochemical; conditions: for logP^a): HPLC-MS method a), Table I-T3; for log P: HPLC-MS, reversed-phase column (C18)
Ctenocephalides felis = Ctenocephalides felis - oral test; assay type: in vivo; conditions: application rate 100 ppm in citrated cattle blood; adult fleas; kill after 2 days
Protocol: Ctenocephalides felis—Oral Test
as §1
For the purpose of producing an appropriate active ingredient formulation, 10 mg of active ingredient are mixed with 0.5 ml of dimethyl sulphoxide. Dilution with citrated cattle blood gives the desired concentration.
About 20 unfed adult cat fleas (Ctenocephalides felis) are placed into a chamber which is closed at the top and bottom with gauze. A metal cylinder whose bottom end is closed with parafilm is placed onto the chamber. The cylinder contains the blood/active ingredient preparation, which can be imbibed by the fleas through the parafilm membrane.
After 2 days, the kill in % is determined. 100% means that all of the fleas have been killed; 0% means that none of the fleas have been killed.

Musca domestica = Musca domestica test; assay type: in vivo; conditions: adult houseflies, kill after 2 days
Protocol: as §1, §2
Vessels containing a sponge treated with sugar solution and the active ingredient formulation of the desired concentration are populated with 10 adult houseflies (Musca domestica).
After 2 days, the kill in % is determined. 100% means that all of the flies have been killed; 0% means that none of the flies have been killed.

Boophilus microplus = Boophilus microplus - injection test; assay type: in vivo; conditions: application rate 20 μg/animal; injected into engorged adult female ticks; laying of fertile eggs, after 7 days
Protocol: Boophilus microplus—Injection Test
as §1
To produce an appropriate active ingredient formulation, 10 mg of active ingredient are mixed with 0.5 ml of solvent and the concentrate is diluted with solvent to the desired concentration.
1 μl of the active ingredient solution is injected into the abdomen of 5 engorged adult female cattle ticks (Boophilus microplus). The animals are transferred into dishes and kept in a climate-controlled room.
Efficacy is assessed after 7 days by laying of fertile eggs. Eggs which are not visibly fertile are stored in a climate-controlled cabinet until the larvae hatch after about 42 days. An efficacy of 100% means that none of the ticks has laid any fertile eggs; 0% means that all the eggs are fertile.

| Structure (SMILES) | efficacy (Lucilia cuprina) | logP^a) [1] | efficacy (Ctenocephalides felis) | efficacy (Musca domestica; application rate 100 ppm) | efficacy (Boophilus microplus) | efficacy (Musca domestica; application rate 4 ppm) | log P [1] |
| --- | --- | --- | --- | --- | --- | --- | --- |
| Cc1cc(C(F)(C(F)(F)F)C(F)(F)F)cc(C)c1-n1cc(-c2ccc(Cl)c(C(=O)NCC(F)(F)F)c2)cn1 [I-T3-2] | 100% | 4.7 | 100% | 100% | 100% |  |  |
| Cc1cc(C(F)(C(F)(F)F)C(F)(F)F)cc(C)c1-n1cc(-c2ccc(Cl)c(C(=O)NC3CSC3)c2)cn1 [I-T3-4] | 100% | 4.7 | 100% | 100% | 100% |  |  |
| Cc1cc(C(F)(C(F)(F)F)C(F)(F)F)cc(C)c1-n1cc(-c2ccc(Cl)c(C(=O)NC3(C(F)(F)F)CC3)c2)cn1 [I-T3-5] | 100% | 4.6 | 100% | 100% | 100% |  |  |
| Cc1cc(C(F)(C(F)(F)F)C(F)(F)F)cc(C)c1-n1cc(-c2cncc(C(=O)NC3(C#N)CC3)c2)cn1 [I-T3-8] | 100% | 3.4 | 100% | 100% | 100% |  |  |
| N#CC1(NC(=O)c2cc(-c3cnn(-c4ccc(C(F)(C(F)(F)F)C(F)(F)F)cc4OC(F)(F)F)c3)ccc2Cl)CC1 [I-T3-34] | 100% | 4.6 | 100% | 100% | 100% |  |  |
| O=C(NC1CC1)c1cc(-c2cnn(-c3ccc(C(F)(C(F)(F)F)C(F)(F)F)cc3OC(F)(F)F)c2)ccc1Cl [I-T3-35] | 100% | 4.7 | 100% |  | 100% | 80% |  |
| O=C(NCC(F)(F)F)c1cc(-c2cnn(-c3c(Cl)cc(C(F)(C(F)(F)F)C(F)(F)F)cc3C(F)(F)F)c2)ccc1Cl [I-T3-58] | 100% | 4.7 | 100% | 100% | 100% |  |  |
| N#CC1(NC(=O)c2cc(-c3cnn(-c4c(F)cc(C(F)(C(F)(F)F)C(F)(F)F)cc4F)c3)ccc2Cl)CC1 [I-T3-62] | 100% | 3.9 | 100% | 100% | 100% |  |  |
| Cc1cc(C(F)(C(F)(F)F)C(F)(F)F)cc(C)c1-n1cc(-c2ccc(Cl)c(C(=O)NC3(C#N)CC3)c2F)cn1 [I-T3-65] | 100% | 4.3 | 100% | 100% | 100% |  |  |
| CCc1cc(C(F)(C(F)(F)F)C(F)(F)F)cc(C)c1-n1cc(-c2cccc(C(=O)NC3CC3)c2F)cn1 [I-T3-70] | 100% | 4.7 | 95% |  | 100% |  |  |
| CCc1cc(C(F)(C(F)(F)F)C(F)(F)F)ccc1-n1cc(-c2cncc(C(=O)NC3(C#N)CC3)c2)cn1 [I-T3-78] | 100% | 3.8 | 100% |  | 100% |  |  |
| CCc1cc(C(F)(F)C(F)(F)F)cc(C)c1-n1cc(-c2ccc(Cl)c(C(=O)NCC(F)(F)F)c2)cn1 [I-T3-82] | 100% | 4.0 | 95% |  | 100% |  |  |
| CCc1cc(C(F)(F)C(F)(F)F)cc(C)c1-n1cc(-c2ccc(Cl)c(C(=O)NC3CSC3)c2)cn1 [I-T3-83] | 100% | 4.6 | 95% |  | 100% |  |  |
| Cc1cc(C(F)(C(F)(F)F)C(F)(F)F)cc(C)c1-n1cc(-c2cnc(C3CC3)c(C(=O)NC3CC3)c2)cn1 [I-T3-140] | 100% |  | 100% |  | 100% |  | 4.2 |
| Cn1ccc(NC(=O)c2cc(-c3cnn(-c4c(Cl)cc(C(F)(F)F)cc4Cl)c3)cnc2Cl)n1 [I-T3-146] | 90% |  | 100% |  | 100% |  | 2.8 |

— patent publication US9758485B2, “Compounds for controlling arthropods” (priority 2013, dated 2017)
